Laboratory results taken from patent publication US8394592B2, “Methods for assessing cancer susceptibility to carcinogens in tobacco products” (The Board of Regents of the University of Texas System, priority 2006, dated 2013).

Test system: peripheral blood lymphocytes
Assay: Cytokinesis-block micronucleus (CBMN) assay, NNK-treated lymphocyte cultures of lung cancer cases and controls
Type: cell-based, human
Conditions: 0.24 mM NNK
Method: The CBMN test was performed using the cytochalasin B technique described by Fenech and Morley (22) and following recommendations from The International Collaborative Project on Micronucleus Frequency in Human Populations (HUMN Project) to measure MN, NPBs and NBUDs in untreated cells and NNK-treated cells (27). Duplicate lymphocyte cultures were prepared for each study subject. Each culture contained 2.0×10^6 cells in 5 mL RPMI 1640 medium supplemented with 100 U/mL penicillin, 100 μg/mL streptomycin, 10% fetal bovine serum, and 2 mM L-glutamine (Gibco-Invitrogen, Carlsbad, Calif.) and 1% phytohemagglutinin (Remel, Lenexa, Kans.). For the cultures treated with NNK, 24 hours after initiation, the PBLs were centrifuged and the supernatant growth medium was removed and reserved. The PBLs were resuspended in 5 mL of serum-free RPMI 1640 medium supplemented with 0.24 mM NNK (a dose previously used by us and others (23-26) (CAS No. 64091-91-4, National Cancer Institute, Midwest Carcinogen Repository, Kansas City, Mo.; purity>98%) and incubated at 37° C. in the presence of 5% CO2 for 2 hours.
Next, the PBLs were washed twice with serum-free RPMI 1640, transferred to clean tubes and re-incubated for […] in the reserved supernatant. At 44 hours after initiation, cells were blocked in cytokinesis by adding cytochalasin B (Sigma, St. Louis, Mo.; final concentration 4 µg/mL). Similarly, cultures for the determination of spontaneous damage (untreated cells) were handled in the same manner, with the exception of treatment with NNK. The total incubation time for all cultures was 72 hours. After incubation, the cells were fixed in 3:1 methanol:glacial acetic acid, dropped onto clean microscopic slides, air-dried and stained with Giemsa stain. For each sample, 1000 binucleated cells were scored blindly using a Nikon E-400 light optical microscope following the scoring criteria outlined by HUMN Project (2,22,27); the numbers of MN, NPBs, and NBUDs per 1000 binucleated cells were recorded. For quality control, 20% of the slides were randomly selected and blindly rescored and the results compared with the original scoring.

[1] = Case, History of Alcohol Use No
[2] = Case, History of Alcohol Use Yes

**Q.** With CN(CCCC(=O)c1cccnc1)N=O [NNK, 4-(methylnitrosamino)-1-(3-pyridyl)-1-butanone] as the compound, how does the “NNK-induced MN, Mean ± SE” value (Case, Age > 62) read?
**A.** 4.54 ± 0.22 per 1000 binucleated cells

**Q.** What about the “NNK-induced MN, Median” value (Case, Age > 62) of the same compound?
**A.** 4.0 per 1000 binucleated cells

**Q.** And the “NNK-induced NBUDs, Mean ± SE” value (Case, Age > 62)?
**A.** 0.90 ± 0.17 per 1000 binucleated cells

**Q.** What about the “NNK-induced NBUDs, Median” value (Case, Age > 62) of the same compound?
**A.** 1.0 per 1000 binucleated cells

**Q.** And the “NNK-induced NPBs, Mean ± SE” value (Case, Age > 62)?
**A.** 8.15 ± 0.33 per 1000 binucleated cells

**Q.** What about the “NNK-induced NPBs, Median” value (Case, Age > 62) of the same compound?
**A.** 8.0 per 1000 binucleated cells

**Q.** What about the “NNK-induced MN, Mean ± SE” value (Case, Age ≦ 62) of the same compound?
**A.** 4.22 ± 0.11 per 1000 binucleated cells

**Q.** And the “NNK-induced MN, Median” value (Case, Age ≦ 62)?
**A.** 4.0 per 1000 binucleated cells

**Q.** What about the “NNK-induced NBUDs, Mean ± SE” value (Case, Age ≦ 62) of the same compound?
**A.** 1.12 ± 0.11 per 1000 binucleated cells

**Q.** And the “NNK-induced NBUDs, Median” value (Case, Age ≦ 62)?
**A.** 1.0 per 1000 binucleated cells

**Q.** And the “NNK-induced NPBs, Mean ± SE” value (Case, Age ≦ 62)?
**A.** 8.11 ± 0.23 per 1000 binucleated cells

**Q.** What about the “NNK-induced NPBs, Median” value (Case, Age ≦ 62) of the same compound?
**A.** 8.0 per 1000 binucleated cells

**Q.** What about the “NNK-induced MN, Mean ± SE” value (Case, Females) of the same compound?
**A.** 4.19 ± 0.17 per 1000 binucleated cells

**Q.** What about the “NNK-induced MN, Median” value (Case, Females) of the same compound?
**A.** 4.0 per 1000 binucleated cells

**Q.** What about the “NNK-induced NBUDs, Mean ± SE” value (Case, Females) of the same compound?
**A.** 1.07 ± 0.12 per 1000 binucleated cells

**Q.** What about the “NNK-induced NBUDs, Median” value (Case, Females) of the same compound?
**A.** 1.0 per 1000 binucleated cells

**Q.** What about the “NNK-induced NPBs, Mean ± SE” value (Case, Females) of the same compound?
**A.** 8.24 ± 0.32 per 1000 binucleated cells

**Q.** And the “NNK-induced NPBs, Median” value (Case, Females)?
**A.** 8.0 per 1000 binucleated cells

**Q.** What about the “NNK-induced MN, Mean ± SE” value [1] of the same compound?
**A.** 4.26 ± 0.14 per 1000 binucleated cells

**Q.** And the “NNK-induced MN, Median” value [1]?
**A.** 4.00 per 1000 binucleated cells

**Q.** And the “NNK-induced NBUDs, Mean ± SE” value [1]?
**A.** 1.09 ± 0.18 per 1000 binucleated cells

**Q.** What about the “NNK-induced NBUDs, Median” value [1] of the same compound?
**A.** 1.00 per 1000 binucleated cells

**Q.** And the “NNK-induced NPBs, Mean ± SE” value [1]?
**A.** 8.04 ± 0.32 per 1000 binucleated cells

**Q.** And the “NNK-induced NPBs, Median” value [1]?
**A.** 8.00 per 1000 binucleated cells

**Q.** And the “NNK-induced MN, Mean ± SE” value [2]?
**A.** 4.37 ± 0.14 per 1000 binucleated cells

**Q.** What about the “NNK-induced MN, Median” value [2] of the same compound?
**A.** 4.00 per 1000 binucleated cells

**Q.** What about the “NNK-induced NBUDs, Mean ± SE” value [2] of the same compound?
**A.** 1.04 ± 0.11 per 1000 binucleated cells

**Q.** What about the “NNK-induced NBUDs, Median” value [2] of the same compound?
**A.** 1.00 per 1000 binucleated cells

**Q.** And the “NNK-induced NPBs, Mean ± SE” value [2]?
**A.** 8.14 ± 0.24 per 1000 binucleated cells

**Q.** What about the “NNK-induced NPBs, Median” value [2] of the same compound?
**A.** 8.00 per 1000 binucleated cells

**Q.** And the “NNK-induced MN, Mean ± SE” value (Case, Males)?
**A.** 4.37 ± 0.13 per 1000 binucleated cells

**Q.** What about the “NNK-induced MN, Median” value (Case, Males) of the same compound?
**A.** 4.0 per 1000 binucleated cells

**Q.** And the “NNK-induced NBUDs, Mean ± SE” value (Case, Males)?
**A.** 1.07 ± 0.11 per 1000 binucleated cells

**Q.** What about the “NNK-induced NBUDs, Median” value (Case, Males) of the same compound?
**A.** 1.0 per 1000 binucleated cells

**Q.** And the “NNK-induced NPBs, Mean ± SE” value (Case, Males)?
**A.** 8.07 ± 0.23 per 1000 binucleated cells

**Q.** And the “NNK-induced NPBs, Median” value (Case, Males)?
**A.** 8.0 per 1000 binucleated cells

**Q.** What about the “NNK-induced MN, Mean ± SE” value (Case, Overall) of the same compound?
**A.** 4.32±0.10 per 1000 binucleated cells

**Q.** What about the “NNK-induced MN, Median” value (Case, Overall) of the same compound?
**A.** 4.0 per 1000 binucleated cells

**Q.** And the “NNK-induced NBUDs, Mean ± SE” value (Case, Overall)?
**A.** 1.07±0.09 per 1000 binucleated cells

**Q.** What about the “NNK-induced NBUDs, Median” value (Case, Overall) of the same compound?
**A.** 1.0 per 1000 binucleated cells

**Q.** And the “NNK-induced NPBs, Mean ± SE” value (Case, Overall)?
**A.** 8.12±0.19 per 1000 binucleated cells

**Q.** And the “NNK-induced NPBs, Median” value (Case, Overall)?
**A.** 8.0 per 1000 binucleated cells

**Q.** And the “NNK-induced MN, Mean ± SE” value (Case, Years smoked > 32)?
**A.** 4.33 ± 0.10 per 1000 binucleated cells

**Q.** And the “NNK-induced MN, Median” value (Case, Years smoked > 32)?
**A.** 4.0 per 1000 binucleated cells

**Q.** And the “NNK-induced NBUDs, Mean ± SE” value (Case, Years smoked > 32)?
**A.** 1.08 ± 0.01 per 1000 binucleated cells

**Q.** What about the “NNK-induced NBUDs, Median” value (Case, Years smoked > 32) of the same compound?
**A.** 1.0 per 1000 binucleated cells

**Q.** What about the “NNK-induced NPBs, Mean ± SE” value (Case, Years smoked > 32) of the same compound?
**A.** 8.07 ± 0.19 per 1000 binucleated cells

**Q.** And the “NNK-induced NPBs, Median” value (Case, Years smoked > 32)?
**A.** 8.0 per 1000 binucleated cells

**Q.** What about the “NNK-induced MN, Mean ± SE” value (Case, Years smoked ≦ 32) of the same compound?
**A.** 3.63 ± 0.32 per 1000 binucleated cells

**Q.** What about the “NNK-induced MN, Median” value (Case, Years smoked ≦ 32) of the same compound?
**A.** 4.0 per 1000 binucleated cells

**Q.** What about the “NNK-induced NBUDs, Mean ± SE” value (Case, Years smoked ≦ 32) of the same compound?
**A.** 1.13 ± 0.44 per 1000 binucleated cells

**Q.** And the “NNK-induced NBUDs, Median” value (Case, Years smoked ≦ 32)?
**A.** 1.0 per 1000 binucleated cells

**Q.** And the “NNK-induced NPBs, Mean ± SE” value (Case, Years smoked ≦ 32)?
**A.** 9.25 ± 0.96 per 1000 binucleated cells

**Q.** What about the “NNK-induced NPBs, Median” value (Case, Years smoked ≦ 32) of the same compound?
**A.** 8.3 per 1000 binucleated cells

**Q.** And the “NNK-induced MN, Mean ± SE” value (Control, Age > 62)?
**A.** 2.75 ± 0.15 per 1000 binucleated cells

**Q.** What about the “NNK-induced MN, Median” value (Control, Age > 62) of the same compound?
**A.** 3.0 per 1000 binucleated cells

**Q.** What about the “NNK-induced NBUDs, Mean ± SE” value (Control, Age > 62) of the same compound?
**A.** 0.10 ± 0.05 per 1000 binucleated cells

**Q.** And the “NNK-induced NBUDs, Median” value (Control, Age > 62)?
**A.** 0.0 per 1000 binucleated cells

**Q.** What about the “NNK-induced NPBs, Mean ± SE” value (Control, Age > 62) of the same compound?
**A.** 2.35 ± 0.14 per 1000 binucleated cells

**Q.** What about the “NNK-induced NPBs, Median” value (Control, Age > 62) of the same compound?
**A.** 2.0 per 1000 binucleated cells

**Q.** And the “NNK-induced MN, Mean ± SE” value (Control, Age ≦ 62)?
**A.** 2.58 ± 0.14 per 1000 binucleated cells

**Q.** And the “NNK-induced MN, Median” value (Control, Age ≦ 62)?
**A.** 2.0 per 1000 binucleated cells

**Q.** And the “NNK-induced NBUDs, Mean ± SE” value (Control, Age ≦ 62)?
**A.** 0.13 ± 0.04 per 1000 binucleated cells

**Q.** And the “NNK-induced NBUDs, Median” value (Control, Age ≦ 62)?
**A.** 0.0 per 1000 binucleated cells

**Q.** What about the “NNK-induced NPBs, Mean ± SE” value (Control, Age ≦ 62) of the same compound?
**A.** 2.41 ± 0.11 per 1000 binucleated cells

**Q.** And the “NNK-induced NPBs, Median” value (Control, Age ≦ 62)?
**A.** 2.0 per 1000 binucleated cells

**Q.** What about the “NNK-induced MN, Mean ± SE” value (Control, Females) of the same compound?
**A.** 2.51 ± 0.23 per 1000 binucleated cells

**Q.** What about the “NNK-induced MN, Median” value (Control, Females) of the same compound?
**A.** 2.0 per 1000 binucleated cells

**Q.** And the “NNK-induced NBUDs, Mean ± SE” value (Control, Females)?
**A.** 0.11 ± 0.05 per 1000 binucleated cells

**Q.** What about the “NNK-induced NBUDs, Median” value (Control, Females) of the same compound?
**A.** 1.0 per 1000 binucleated cells
